According to patent publication US6479531B1, “Gastrin and cholecystokinin receptor ligands” (James Black Foundation Limited, priority 1998, dated 2002):
Counter-ions that a name gives are not always drawn.

The molecules below were run against T1, gastrin receptor (Rattus norvegicus, UniProt P30553) (assay: gastrin antagonist activity in immature rat stomach assay (pentagastrin dose-response, acid secretion)). Conditions: isolated immature rat stomach, cumulative pentagastrin dose-response curves.
T1 construct: The stomach was excised and flushed with ca. 1 ml of unbuffered physiological saline solution; from tissue; host or cells: isolated whole stomach of immature rats (ca. 21 days old)
T1 sequence (P30553 1-452): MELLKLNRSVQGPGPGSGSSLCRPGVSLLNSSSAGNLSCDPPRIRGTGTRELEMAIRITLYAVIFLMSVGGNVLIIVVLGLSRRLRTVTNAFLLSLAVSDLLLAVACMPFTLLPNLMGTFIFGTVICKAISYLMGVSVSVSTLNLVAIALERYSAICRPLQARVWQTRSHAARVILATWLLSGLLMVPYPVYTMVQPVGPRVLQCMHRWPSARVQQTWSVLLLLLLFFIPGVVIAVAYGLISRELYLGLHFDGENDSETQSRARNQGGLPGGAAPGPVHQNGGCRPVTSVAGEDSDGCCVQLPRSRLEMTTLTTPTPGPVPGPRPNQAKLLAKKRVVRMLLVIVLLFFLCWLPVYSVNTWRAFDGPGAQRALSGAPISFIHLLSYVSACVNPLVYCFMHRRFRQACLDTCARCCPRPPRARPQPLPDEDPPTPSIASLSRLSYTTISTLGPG
Protocol: The compounds of the examples were also tested for gastrin antagonist activity in an immature rat stomach assay. The procedure was as follows:
The oesophagus of immature rats (33-50 g, ca. 21 days old) was ligated at the level of the cardiac sphincter and the duodenal sphincter was cannulated. The stomach was excised and flushed with ca. 1 ml of unbuffered physiological saline solution. The fundus was punctured and cannulated. A further 4-5 ml of unbuffered solution was flushed through the stomach to ensure the preparation was not leaking. The stomach was lowered into a jacketed organ bath containing 40 ml of buffered solution containing 3×10^−8 M 5-methylfurmethide, maintained at 37° and gassed vigorously with 95% O2/5% CO2. The stomach was continuously perfused at a rate of 1 ml min^−1 with unbuffered solution gassed with 100% O2 with the perfusate passing over an internally referenced pH-electrode fixed 12 cm above the stomach.
After 120 min of stabilisation the drugs were added directly to the serosal solution in the organ bath and after a further 60 min cumulative pentagastrin dose-response curves were started. Changes in acid secretion were monitored and the curves analysed according to Black et al., Br. J. Pharmacol., 1985, 86, 581.

Molecule	Gastrin pKb
O=C(O)c1cccc(NC(=O)c2nc(C3CC4C=CC3C4)[nH]c2COC23CC4CC(CC(C4)C2)C3)c1 (racemic) [Example 234, (±)-endo-3-{[5-(Adamantan-1-yloxymethyl)-2-bicyclo[2.2.1]hept-5-en-2-yl-1H-imidazole-4-carbonyl]-amino}-benzoic Acid]	8.71
(±)-3-{[5-(2-Adamantan-1-yl-ethyl)-2-[1-(2-methyl-propyl)-piperidin-2-yl])-1H-imidazole-4-carbonyl]-amino}-benzoic Acid [Example 140]	7.54
O=C(O)c1cccc(NC(=O)c2nc([C@H]3CC4C=C[C@H]3C4)[nH]c2COC23CC4CC(CC(C4)C2)C3)c1 [Example 295, exo-3-{[5-(Adamantan-1-yloxymethyl)-2-((1R,2S)-bicyclo[2.2.1]hept-5-en-2-yl)-1H-imidazole-4-carbonyl]-amino}-benzoic Acid]	8.61
O=C(Nc1cccc(CC(O)C(=O)O)c1)c1nc(C2CCCCC2)[nH]c1CCC12CC3CC(CC(C3)C1)C2 (racemic) [Example 260, (±)-(3-{[5-(2-Adamantan-1-yl-ethyl)-2-cyclohexyl-1H-imidazole-4-carbonyl]-amino}-phenyl)-2-hydroxy-propionic Acid]	7.01
Cc1ccc(NC(=O)c2nc([C@H]3CC4C=C[C@@H]3C4)[nH]c2COC23CC4CC(CC(C4)C2)C3)cc1C(=O)O [Example 289, endo-5-{[5-(Adamantan-1-yloxymethyl)-2-((1S,2S)-bicyclo[2.2.1]hept-5-en-2-yl)-1H-imidazole-4-carbonyl]-amino}-2-methyl-benzoic Acid]	8.74

Same assay, conditions: isolated immature rat stomach, cumulative pentagastrin dose-response curves, read-out: Gastrin pKb (converted)

Molecule	Kb [nM]
CC(=O)NC(Cc1cccc(NC(=O)c2nc(C3CCCCC3)[nH]c2CCC23CC4CC(CC(C4)C2)C3)c1)C(=O)O (racemic) [Example 265, (±)-2-Acetylamino-3-(3-{[5-(2-adamantan-1-yl-ethyl)-2-cyclohexyl-1H-imidazole-4-carbonyl]-amino}-phenyl)-propionic Acid]	148
O=C(O)CCc1cccc(NC(=O)c2nc(C3CCCCC3)[nH]c2CCC23CC4CC(CC(C4)C2)C3)c1 [Example 258, 3-(3-{[5-(2-Adamantan-1-yl-ethyl)-2-cyclohexyl-1H-imidazole-4-carbonyl]-amino}-phenyl)-propionic Acid Trifluoroacetic Acid Salt]	204
CC1(C)C2CC[C@@]1(C)C(c1nc(C(=O)Nc3cccc(C(=O)O)c3)c(CCC34CC5CC(CC(C5)C3)C4)[nH]1)C2 (mixture of isomers) [Example 206, 3-{[5-(2-Adamantan-1-yl-ethyl)-2-[(1S,2RS)-1,7,7-trimethyl-bicyclo[2.2.1]hept-2-yl]-1H-imidazole-4-carbonyl]-amino}-benzoic Acid]	263
CCCCCC12CCC(c3nc(C(=O)Nc4cccc(C(=O)O)c4)c(COC45CC6CC(CC(C6)C4)C5)[nH]3)(CC1)CC2 [Example 302, 3-{[5-(Adamantan-1-yloxymethyl)-2-(4-pentyl-bicyclo[2.2.2]oct-1-yl)-1H-imidazole-4-carbonyl]-amino}-benzoic Acid]	589
O=C(O)c1cccc(NC(=O)c2nc(C3C4CCC3CC4)[nH]c2COC23CC4CC(CC(C4)C2)C3)c1 (stereo not drawn) [Example 232, 3-{[5-(Adamantan-1-yloxymethyl)-2-bicyclo[2.2.1]hept-7-yl-1H-imidazole-4-carbonyl]-amino}-benzoic Acid]	1.38
O=C(O)c1cccc(NC(=O)c2nc(C3CCCCC3)[nH]c2COCC23CC4CC(CC(C4)C2)C3)c1 [Example 309, 3-{[5-(Adamantan-1-ylmethoxymethyl)-2-cyclohexyl-1H-imidazole-4-carbonyl]-amino}-benzoic Acid]	24.5
CN(CC(=O)O)C(=O)c1cccc(NC(=O)c2nc(C3CCCCC3)[nH]c2CCC23CC4CC(CC(C4)C2)C3)c1 [Example 266, [(3-{[5-(2-Adamantan-1-yl-ethyl)-2-cyclohexyl-1H-imidazole-4-carbonyl]-amino}-benzoyl)-methyl-amino]-acetic Acid]	19.1
O=C(O)CNC(=O)c1cccc(NC(=O)c2nc(C3CCCCC3)[nH]c2CCC23CC4CC(CC(C4)C2)C3)c1 [Example 263, (3-{[5-(2-Adamantan-1-yl-ethyl)-2-cyclohexyl-1H-imidazole-4-carbonyl]-amino}-benzoylamino)-acetic Acid]	75.9
CC1(c2nc(C(=O)Nc3cccc(C(=O)O)c3)c(COC34CC5CC(CC(C5)C3)C4)[nH]2)CCCCC1 [Example 303, 3-{[5-(Adamantan-1-yloxymethyl)-2-(1-methyl-cyclohexyl)-1H-imidazole-4-carbonyl]-amino}-benzoic Acid]	11.7
O=C(O)c1cccc(NC(=O)c2c(COC34CC5CC(CC(C5)C3)C4)nc(C3CCCCC3)n2O)c1 [Example 308, 3-{[5-(Adamantan-1-yloxymethyl)-2-cyclohexyl-3-hydroxy-3H-imidazole-4-carbonyl]-amino}-benzoic Acid]	18.6
O=C(O)c1cccc(NC(=O)c2[nH]c(C34CCC(CC3)CC4)nc2CCC23CC4CC(CC(C4)C2)C3)c1 [Example 212, 3-{[5-(2-Adamantan-1-yl-ethyl)-2-bicyclo[2.2.2]oct-1-yl-1H-imidazole-4-carbonyl]-amino}-benzoic Acid]	2.45
O=C(O)c1cccc(NC(=O)c2nc(C3(CO)CCCCC3)[nH]c2CCC23CC4CC(CC(C4)C2)C3)c1 [Example 204, 3-{[5-(2-Adamantan-1-yl-ethyl)-2-(1-hydroxymethyl-cyclohexyl)-1H-imidazole-4-carbonyl]-amino}-benzoic Acid]	5.75
O=C(O)c1cccc(NC(=O)c2nc(C3CCCCCC3)[nH]c2COC23CC4CC(CC(C4)C2)C3)c1 [Example 228, 3-{[5-(Adamantan-1-yloxymethyl)-2-cycloheptyl-1H-imidazole-4-carbonyl]-amino}-benzoic Acid]	0.724
COCC(COC)c1nc(C(=O)Nc2cccc(C(=O)O)c2)c(CCC23CC4CC(CC(C4)C2)C3)[nH]1 [Example 189, 3-{[5-(2-Adamantan-1-yl-ethyl)-2-(2-methoxy-1-methoxymethyl-ethyl)-1H-imidazole-4-carbonyl]-amino}-benzoic Acid]	61.7
O=C(O)CCc1ccc(NC(=O)c2nc(C3CCCCC3)[nH]c2CCC23CC4CC(CC(C4)C2)C3)cc1 [Example 283, 3-(4-{[5-(2-Adamantan-1-yl-ethyl)-2-cyclohexyl-1H-imidazole-4-carbonyl]-amino}-phenyl)-propionic Acid]	1150
O=C(O)Cc1cccc(NC(=O)c2nc(C3CCCCCC3)[nH]c2COC23CC4CC(CC(C4)C2)C3)c1 [Example 229, (3-{[5-(Adamantan-1-yloxymethyl)-2-cycloheptyl-1H-imidazole-4-carbonyl]-amino}-phenyl)-acetic Acid]	35.5
COc1cc(OC)c(-c2nc(C(=O)Nc3cccc(C(=O)O)c3)c(CCC34CC5CC(CC(C5)C3)C4)[nH]2)c(OC)c1 [Example 160, 3-{[5-(2-Adamantan-1-yl-ethyl)-2-(2,4,6-trimethoxy-phenyl)-1H-imidazole-4-carbonyl]-amino}-benzoic Acid]	912
O=C(Nc1cccc(C(=O)N2CCC[C@H]2C(=O)O)c1)c1nc(C2CCCCC2)[nH]c1CCC12CC3CC(CC(C3)C1)C2 [Example 285, (S)-1-(3-{[5-(2-Adamantan-1-yl-ethyl)-2-cyclohexyl-1H-imidazole-4-carbonyl]-amino}-benzoyl)-pyrrolidine-2-carboxylic Acid]	1000
C[C@@H](NC(=O)c1cccc(NC(=O)c2nc(C3CCCCC3)[nH]c2CCC23CC4CC(CC(C4)C2)C3)c1)C(=O)O [Example 273, (R)-2-(3-{[5-(2-Adamantan-1-yl-ethyl)-2-cyclohexyl-1H-imidazole-4-carbonyl]-amino}-benzoylamino)-propionic Acid]	49
Cc1ccccc1-c1nc(C(=O)Oc2cccc(C(=O)O)c2)c(CCC23CC4CC(CC(C4)C2)C3)[nH]1 [Example 281, 5-(2-Adamantan-1-yl-ethyl)-2-o-tolyl-1H-imidazole-4-carboxylic Acid 3-carboxy-phenyl Ester]	2090
Cc1ccccc1-c1nc(CCC23CC4CC(CC(C4)C2)C3)c(C=Cc2cccc(C(=O)O)c2)n1C [Example 276, 3-{2-[5-(2-Adamantan-1-yl-ethyl)-3-methyl-2-o-tolyl-3H-imidazol-4-yl]-vinyl}-benzoic Acid]	1170
Cc1ccc(NC(=O)c2nc(C3CCCCC3)[nH]c2COCC23CC4CC(CC(C4)C2)C3)cc1C(=O)O [Example 310, 5-{[5-(Adamantan-1-ylmethoxymethyl)-2-cyclohexyl-1H-imidazole-4-carbonyl]-amino}-2-methyl-benzoic Acid]	115
